Key:
[1] = design: method as in PMID 19228743; settings: humans, clinical Phase I trials; cited from earlier work
[2] = In vitro release by dialysis into PBS pH 7.4, 37 °C; type: physicochemical; settings: free drug
Description: The in vitro release of the drug from DSPE-PEG2000 micelles into PBS (pH 7.4) was done by a dialysis method. Dialysis was carried out at 37 °C under sink condition using a 10-kDa MWCO dialysis tubing (SnakeSkin®, Thermo Scientific Inc., Rockford, IL, USA). The initial volume of drug-loaded micelles in the dialysis tubing was 2 mL and the sink solution was 4 L. The PBS was changed several times per day to maintain sink conditions. After pre-determined time intervals, samples were withdrawn from the dialysis bag and analyzed by a reversed phase HPLC column (TSK-GEL® ODS-100Z, Tosoh Bioscience) at 50 °C with UV detection at 290 nm.

- in vitro release t50% [2]: less than 20 min
- in vitro release t90% [2]: 1 h
Structure (SMILES): CO[C@H]1C[C@@H]2CC[C@@H](C)[C@@](O)(O2)C(=O)C(=O)N2CCCC[C@H]2C(=O)O[C@H]([C@H](C)C[C@@H]2CC[C@@H](OP(C)(C)=O)[C@H](OC)C2)CC(=O)[C@H](C)/C=C(\C)[C@@H](O)[C@@H](OC)C(=O)[C@H](C)C[C@H](C)/C=C/C=C/C=C/1C [Ridaforolimus, ridaforolimus]
- half-life [1]: 45 to 52 h

Source: publication PMC3834941, “Pharmacokinetic Evaluation of a DSPE-PEG2000 Micellar Formulation of Ridaforolimus in Rat” (Pharmaceutics, 2012)
